In EP0220825A2, “Pharmaceutical composition for topical application” (DIOMED DEVELOPMENTS LIMITED, priority 1985, dated 1987):
Where “and” joins values, the source holds several entries; their conditions need not be identical. Identical values can stand only once.

Legend:
local blood flow = assay: Laser Doppler flowmeter measurement of blood cell flux after topical application; type: in vivo; conditions: for No. measurable responses: of ten subjects; for Time to response Initial / Time to response Peak / Time to response Return to zero: ± S.D.
Excerpt: The blood cell flux is then given by the product of the number of red blood cells found to be moving in the irradiated volume of skin and adjacent tissue and the mean red blood cell velocity. The results expressed by the flowmeter indicate the relative change of the blood cell flux over control conditions, i.e. before application of the composition. […] The figures for "area" given in the third column are obtained by graphical integration of a graph of blood cell flux against time obtained using the laser Doppler flowmeter. Any figure in this column greater than about 20 may be regarded as indicative of a useful improvement in local blood flow in the treated area. […] Thus the compositions in accordance with the invention make it possible to obtain a useful increase in local blood flow without appreciable erythema. The compositions of the present invention are thus useful in preventing pressure sores where is it desired to stimulate local blood flow without obvious erythema.

skin = assay: Erythema score after topical application; type: in vivo
Excerpt: Using an erythema scale of 0 to 3, an erythema value of up to 0.5 (which is barely detectable) is considered acceptable. The figures for "area" given in the third column are obtained by graphical integration of a graph of blood cell flux against time obtained using the laser Doppler flowmeter. Any figure in this column greater than about 20 may be regarded as indicative of a useful improvement in local blood flow in the treated area. […] Thus the compositions in accordance with the invention make it possible to obtain a useful increase in local blood flow without appreciable erythema. The compositions of the present invention are thus useful in preventing pressure sores where is it desired to stimulate local blood flow without obvious erythema.

Compound: CCCCCCOC(=O)c1cccnc1 [hexyl nicotinate, Hexyl nicotinate]
- Area (local blood flow; 0.025 % hexyl nicotinate lotion, site arms, single subjects, area under curve of blood cell flux against time, adjusted to a sensitivity of 1): 0 cm^2 (4×) and 124.05 cm^2
- Area (local blood flow; 0.025 % hexyl nicotinate lotion, site buttocks, single subjects, area under curve of blood cell flux against time): 5.00 cm^2 and 0 cm^2 (3×) and 51.59 cm^2
- Area (local blood flow; 0.05 % hexyl nicotinate lotion (Example l), site arms, single subjects, area under curve of blood cell flux against time): 32.17 cm^2 and 0 cm^2 and 89.59 cm^2 and 80.90 cm^2 and 126.32 cm^2
- Area (local blood flow; 0.05 % hexyl nicotinate lotion (Example l), site buttocks, single subjects, area under curve of blood cell flux against time): 91.86 cm^2 and 22.28 cm^2 and 4.29 cm^2 and 0 cm^2 and 64.73 cm^2
- Area (local blood flow; 0.10 % hexyl nicotinate lotion, site arms, single subjects, area under curve of blood cell flux against time): 103.06 cm^2 and 0 cm^2 and 82.80 cm^2 and 152.26 cm^2 and 119.99 cm^2
- Area (local blood flow; 0.10 % hexyl nicotinate lotion, site buttocks, single subjects, area under curve of blood cell flux against time): 246.74 cm^2 and 119.97 cm^2 and 0 cm^2 and 5.24 cm^2 and 199.76 cm^2
- No. measurable responses (local blood flow; 0.025 % hexyl nicotinate): 2
- No. measurable responses (local blood flow; 0.05 % hexyl nicotinate): 8
- No. measurable responses (local blood flow; 0.10 % hexyl nicotinate): 8
- Area (local blood flow; summary of ten subjects, 0.025 % hexyl nicotinate): 18.05 cm^2
- Area (local blood flow; summary of ten subjects, 0.05 % hexyl nicotinate): 51.21 cm^2
- Area (local blood flow; summary of ten subjects, 0.10 % hexyl nicotinate): 102.98 cm^2
- Time to response Initial (local blood flow; 0.025 % hexyl nicotinate): 5.5 ± 0.7 min
- Time to response Peak (local blood flow; 0.025 % hexyl nicotinate): 22.5 ± 6.4 min
- Time to response Return to zero (local blood flow; 0.025 % hexyl nicotinate): 78.5 ± 16.3 min
- Time to response Initial (local blood flow; 0.05 % hexyl nicotinate): 10.6 ± 5.0 min
- Time to response Peak (local blood flow; 0.05 % hexyl nicotinate): 27.9 ± 12.3 min
- Time to response Return to zero (local blood flow; 0.05 % hexyl nicotinate): 75.8 ± 19.2 min
- Time to response Initial (local blood flow; 0.10 % hexyl nicotinate): 7.8 ± 2.3 min
- Time to response Peak (local blood flow; 0.10 % hexyl nicotinate): 20.8 ± 6.4 min
- Time to response Return to zero (local blood flow; 0.10 % hexyl nicotinate): 83.3 ± 17.7 min
- Erythema (skin; 0.025 % hexyl nicotinate lotion, site arms, single subjects, score 0-3 (0=No erythema, 3=severe erythema)): 0 (4×) and 0.5
- Erythema (skin; 0.025 % hexyl nicotinate lotion, site buttocks, single subjects, score 0-3): 0 (4×) and 1
- Erythema (skin; 0.05 % hexyl nicotinate lotion (Example l), site arms, single subjects, score 0-3): 0 (2×) and 0.5 (2×) and 1
- Erythema (skin; 0.05 % hexyl nicotinate lotion (Example l), site buttocks, single subjects, score 0-3): 1 (2×) and 0.5 and 0 (2×)
- Erythema (skin; 0.10 % hexyl nicotinate lotion, site arms, single subjects, score 0-3): 2 (3×) and 0 and 1
- Erythema (skin; 0.10 % hexyl nicotinate lotion, site buttocks, single subjects, score 0-3): 2 and 1 and 0.5 (2×) and 3
- Erythema (skin; concentrations in the range 0.l to 0.2% by weight of the composition, patients): cause erytheme in a significant proportion of patients
- Erythema (skin; summary of ten subjects, 0.025 % hexyl nicotinate, score 0-3): 0.15
- Erythema (skin; summary of ten subjects, 0.05 % hexyl nicotinate, score 0-3): 0.45
- Erythema (skin; summary of ten subjects, 0.10 % hexyl nicotinate, score 0-3): 1.40
